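These data come from cells grown in 96-well plates and exposed to compound for 48 hours at five concentrations. GI50 is the concentration that inhibits growth by half.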 Calls of active or inactive are those of the source. Rule as the data show it: active = GI50 up to about 1.1 µM and inactive = higher.
Assays:
Experiment in all cases: inhibition of tumour cell growth, NCI panel, 48 h
786-0 = test system: 786-0
ACHN = test system: ACHN
BT-549 = test system: BT-549
HOP-62 = test system: HOP-62
K562 = test system: K562
MDA-N = test system: MDA-N
NCI-H23 = test system: NCI-H23
NCI-H522 = test system: NCI-H522
NCI/ADR-RES = test system: NCI/ADR-RES
OVCAR-4 = test system: OVCAR-4
OVCAR-8 = test system: OVCAR-8
SNB-19 = test system: SNB-19
SW-620 = test system: SW-620
T47D = test system: T47D
TK-10 = test system: TK-10
U-251 = test system: U-251
LOX IMVI = test system: LOX IMVI
RXF 393 = test system: RXF 393

Measured: GI50

COCCNc1cncc(C(N)=O)c1
inactive: 786-0 > 100 µM | ACHN > 100 µM | BT-549 > 100 µM | HOP-62 > 100 µM | K562 > 100 µM | MDA-N > 100 µM | NCI-H23 > 100 µM | NCI-H522 > 100 µM | NCI/ADR-RES > 100 µM | OVCAR-4 > 100 µM | OVCAR-8 > 100 µM | SNB-19 > 100 µM | SW-620 > 100 µM | T47D 65.6 µM | TK-10 > 100 µM | U-251 > 100 µM

C#C[C@]1(O)CC[C@H]2[C@@H]3CCC4=C/C(=N/NC(=O)c5cccc6cc7ccccc7nc56)CC[C@@H]4[C@H]3CC[C@@]21CC
inactive: 786-0 34.4 µM | ACHN > 100 µM | BT-549 > 100 µM | HOP-62 67.9 µM | K562 > 100 µM | LOX IMVI 48.9 µM | MDA-N 93.3 µM | NCI-H23 > 100 µM | NCI/ADR-RES 58.9 µM | OVCAR-4 > 100 µM | OVCAR-8 45 µM | RXF 393 > 100 µM | SNB-19 > 100 µM | SW-620 > 100 µM | T47D 21 µM | U-251 > 100 µM

COc1cc(C2c3cc4c(cc3OC(NCCO)C2C)OCO4)cc(OC)c1O (stereo not drawn)
inactive: 786-0 8.26 µM | BT-549 9.53 µM | MDA-N 1.61 µM | NCI-H23 24.6 µM | NCI-H522 3.27 µM | NCI/ADR-RES 4.58 µM | OVCAR-4 > 100 µM | OVCAR-8 19 µM | RXF 393 20.4 µM | SNB-19 29.2 µM | SW-620 5.53 µM | T47D 18.2 µM | TK-10 12.8 µM | U-251 6.08 µM

C=CCC1(C(=O)OC)CCC/C(=N\O)C1 (stereo not drawn)
inactive: 786-0 > 10 µM | ACHN > 10 µM | BT-549 > 10 µM | HOP-62 > 10 µM | K562 > 10 µM | LOX IMVI > 10 µM | MDA-N > 10 µM | NCI-H23 > 10 µM | NCI-H522 > 10 µM | NCI/ADR-RES > 10 µM | OVCAR-4 > 10 µM | OVCAR-8 > 10 µM | SNB-19 > 10 µM | SW-620 > 10 µM | T47D > 10 µM | TK-10 > 10 µM | U-251 > 10 µM

COc1ccc2[nH]cc(CCNC(=O)[C@H](Cc3ccccc3)NC(=O)[C@@H](NCC(F)(F)F)C(C)C)c2c1
inactive: 786-0 18.1 µM | ACHN 28.2 µM | BT-549 21.4 µM | HOP-62 14.8 µM | K562 29.7 µM | LOX IMVI 22.1 µM | MDA-N 18.2 µM | NCI-H23 25.3 µM | NCI-H522 16.7 µM | NCI/ADR-RES 19.1 µM | OVCAR-4 16.3 µM | OVCAR-8 23.3 µM | RXF 393 15.6 µM | SNB-19 28.6 µM | SW-620 28.5 µM | TK-10 22 µM | U-251 21.4 µM

NCCSc1nc2ccccc2s1
inactive: 786-0 26.6 µM | ACHN 33.5 µM | BT-549 31.5 µM | HOP-62 23.8 µM | K562 10.6 µM | LOX IMVI 30.7 µM | MDA-N 38.3 µM | NCI-H23 41.7 µM | NCI-H522 28.1 µM | NCI/ADR-RES 42.6 µM | OVCAR-4 29 µM | OVCAR-8 43.2 µM | RXF 393 29.5 µM | SNB-19 64.7 µM | SW-620 32.1 µM | TK-10 24.9 µM | U-251 21.7 µM

COC(=O)C(COC(C)=O)NC(=O)/C=C/c1ccc(O)c(OC(C)=O)c1 (stereo not drawn)
inactive: 786-0 55.8 µM | ACHN 74 µM | BT-549 > 100 µM | HOP-62 49.3 µM | K562 44.6 µM | LOX IMVI 44.6 µM | MDA-N > 100 µM | NCI-H23 > 100 µM | NCI-H522 11.4 µM | NCI/ADR-RES 75.3 µM | OVCAR-4 70.8 µM | OVCAR-8 58.1 µM | SNB-19 > 100 µM | SW-620 31 µM | T47D 31.2 µM | TK-10 77.4 µM | U-251 37 µM

CC1(c2cccc(Cl)c2)CC(c2cccc(Cl)c2)=C(C#N)C(=C(C#N)C#N)N1 (stereo not drawn)
inactive: 786-0 15.7 µM | ACHN 17.8 µM | BT-549 22.8 µM | HOP-62 19.4 µM | K562 14.3 µM | LOX IMVI 19.8 µM | MDA-N 20.1 µM | NCI-H23 17.4 µM | NCI/ADR-RES 18.9 µM | OVCAR-4 14.2 µM | OVCAR-8 17.9 µM | RXF 393 14.8 µM | SNB-19 17.9 µM | SW-620 12.1 µM | T47D 13.2 µM | TK-10 17.7 µM | U-251 16.4 µM

COc1ccc(NC(C)=O)c(C(=O)CCNC(C)=O)c1
inactive: 786-0 > 100 µM | ACHN > 100 µM | BT-549 > 100 µM | LOX IMVI > 100 µM | MDA-N > 100 µM | NCI-H23 > 100 µM | NCI-H522 > 100 µM | NCI/ADR-RES > 100 µM | OVCAR-4 > 100 µM | OVCAR-8 > 100 µM | RXF 393 > 100 µM | SNB-19 > 100 µM | SW-620 > 100 µM | T47D > 100 µM | TK-10 > 100 µM | U-251 > 100 µM

C/C=C1\CC(C(=O)OCC)CCCCCCC1=O (stereo not drawn)
inactive: 786-0 > 100 µM | ACHN > 100 µM | BT-549 > 100 µM | HOP-62 > 100 µM | LOX IMVI > 100 µM | MDA-N > 100 µM | NCI-H23 > 100 µM | NCI-H522 99.8 µM | NCI/ADR-RES > 100 µM | OVCAR-4 > 100 µM | OVCAR-8 > 100 µM | RXF 393 > 100 µM | SNB-19 > 100 µM | SW-620 > 100 µM | T47D > 100 µM | TK-10 > 100 µM | U-251 > 100 µM

COc1ccccc1CNCCCCCNCCCCCCCCCCNCCCCCNCc1ccccc1OC
inactive: 786-0 23.9 µM | ACHN > 100 µM | BT-549 23.5 µM | HOP-62 16 µM | K562 13.6 µM | LOX IMVI 16.7 µM | MDA-N 18.2 µM | NCI-H23 42.2 µM | NCI-H522 19.8 µM | OVCAR-4 79.1 µM | OVCAR-8 25.6 µM | RXF 393 31 µM | SNB-19 38.1 µM | SW-620 34.4 µM | T47D 54.7 µM | TK-10 54.6 µM | U-251 18.9 µM

CN(CC(=O)Nc1ccccc1C(=O)O)c1ccccc1
inactive: 786-0 > 100 µM | ACHN > 100 µM | BT-549 > 100 µM | HOP-62 > 100 µM | K562 > 100 µM | LOX IMVI > 100 µM | MDA-N > 100 µM | NCI-H23 > 100 µM | NCI-H522 > 100 µM | OVCAR-4 > 100 µM | OVCAR-8 > 100 µM | RXF 393 > 100 µM | SNB-19 > 100 µM | SW-620 90.2 µM | T47D > 100 µM | TK-10 > 100 µM | U-251 > 100 µM
